Values quoted from earlier work as cited in patent US20220175799A1, “COMPOSITIONS HAVING THE ABILITY TO PROMOTE HEALTHY CHOLESTEROL LEVELS” (Brilliant Lab LLC, priority 2020, published 2022).
Where two headings read alike, the source gives them in different places.

Key:
[1] = not given; remark: listed apart in the source
[2] = not given; remark: listed apart in the source

| Compound | % LDL-C Reduction (statin dose 1 mg) | % LDL-C Reduction (statin dose 2 mg) | % LDL-C Reduction (statin dose 4 mg) | Reduction in LDL-C levels ([1]; statin daily oral dose 5 mg) | Reduction in LDL-C levels ([1]; statin daily oral dose 10 mg) | Reduction in LDL-C levels ([1]; statin daily oral dose 20 mg) | Reduction in LDL-C levels ([1]; statin daily oral dose 40 mg) | Reduction in LDL-C levels ([1]; statin daily oral dose 80 mg) | % LDL-C Reduction (statin dose 10 mg) | % LDL-C Reduction (statin dose 20 mg) | % LDL-C Reduction (statin dose 40 mg) | % LDL-C Reduction (statin dose 80 mg) | reduction of LDL-cholesterol in subjects ([2]; 1 g daily) | reduction of total cholesterol in subjects ([2]; 1 g daily) | % LDL-C Reduction (statin dose 5 mg) | reduction of LDL-cholesterol in subjects ([2]; 22 mg daily) |
| --- | --- | --- | --- | --- | --- | --- | --- | --- | --- | --- | --- | --- | --- | --- | --- | --- |
| O=C(O)C[C@H](O)C[C@H](O)/C=C/c1c(C2CC2)nc2ccccc2c1-c1ccc(F)cc1 [Pitavastatin] | 30% | 32% | 42% |  |  |  |  |  |  |  |  |  |  |  |  |  |
| CC(C)c1c(C(=O)Nc2ccccc2)c(-c2ccccc2)c(-c2ccc(F)cc2)n1CC[C@@H](O)C[C@@H](O)CC(=O)O [Atorvastatin] |  |  |  | 58.3917 mg/dL | 69.2193 mg/dL | 80.0469 mg/dL | 91.2612 mg/dL | 102.0888 mg/dL | 38% | 42% | 52% | 60% |  |  |  |  |
| CC[C@H](C)C(=O)O[C@H]1C[C@@H](C)C=C2C=C[C@H](C)[C@H](CC[C@@H]3C[C@@H](O)CC(=O)O3)[C@H]21 [Lovastatin] |  |  |  |  | 39.4434 mg/dL | 54.138 mg/dL | 68.4459 mg/dL | 83.1405 mg/dL | 20% | 26% | 30% | 38% |  |  |  |  |
| CC(C)n1c(/C=C/C(O)CC(O)CC(=O)O)c(-c2ccc(F)cc2)c2ccccc21 (stereo not shown) [Fluvastatin] |  |  |  | 17.7882 mg/dL | 28.6158 mg/dL | 39.4434 mg/dL | 50.271 mg/dL | 61.0986 mg/dL |  | 20% | 24% | 34% |  |  |  |  |
| COc1ccc2cc3[n+](cc2c1OC)CCc1cc2c(cc1-3)OCO2 [berberine] |  |  |  |  |  |  |  |  |  |  |  |  | ~16.4% | about 11.6% |  |  |
| CC(C)c1nc(N(C)S(C)(=O)=O)nc(-c2ccc(F)cc2)c1/C=C/[C@@H](O)C[C@@H](O)CC(=O)O [Rosuvastatin] |  |  |  | 71.1528 mg/dL | 80.4336 mg/dL | 89.7144 mg/dL | 98.9952 mg/dL | 108.276 mg/dL | 52% | 56% | 63% |  |  |  | 44% |  |
| CC(C)=CCC/C(C)=C/C=C/C(C)=C/C=C/C(C)=C/C=C/C=C(C)/C=C/C=C(C)/C=C/C=C(\C)CCC=C(C)C [lycopene] |  |  |  |  |  |  |  |  |  |  |  |  |  |  |  | about 3.7 mg/dl |
